{"source": "paper PMC5620994", "about": "“Halogenation of glycopeptide antibiotics occurs at the amino acid level during non-ribosomal peptide synthesis” (Chemical Science, 2017)", "key": {"[1]": {"biological_target": "T1, BhaA (balhimycin halogenase) (Amycolatopsis balhimycina, UniProt O87676)", "T1 construct": "overproduced in Pseudomonas fluorescens BL915 deltaORF1-4 from shuttle vector pCIBhis (His tag)", "T1 sequence (O87676 entry or part of it)": "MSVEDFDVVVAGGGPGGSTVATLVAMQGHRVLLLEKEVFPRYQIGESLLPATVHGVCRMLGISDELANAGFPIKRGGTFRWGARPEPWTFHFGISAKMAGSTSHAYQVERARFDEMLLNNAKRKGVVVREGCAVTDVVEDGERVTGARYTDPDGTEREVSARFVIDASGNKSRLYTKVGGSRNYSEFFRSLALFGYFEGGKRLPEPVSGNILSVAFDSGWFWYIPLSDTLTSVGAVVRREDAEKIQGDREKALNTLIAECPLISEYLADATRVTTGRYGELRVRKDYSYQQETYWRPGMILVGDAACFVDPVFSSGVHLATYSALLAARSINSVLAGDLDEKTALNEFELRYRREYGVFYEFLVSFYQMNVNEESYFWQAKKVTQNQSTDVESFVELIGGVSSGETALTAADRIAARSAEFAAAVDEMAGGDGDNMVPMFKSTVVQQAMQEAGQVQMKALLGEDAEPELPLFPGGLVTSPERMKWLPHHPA", "experiment": "purified as FAD-bound form", "type": "binding", "conditions": "FAD co-purified with the enzyme"}, "[2]": {"biological_target": "T2, Tcp21 (halogenase from the teicoplanin system) (Actinoplanes teichomyceticus, UniProt Q70AY7)", "T2 construct": "synthetic codon-optimised gene, selected range 16-506, pET-28(a) via NdeI/HindIII, His-tagged, expressed in E. coli", "T2 sequence (Q70AY7 16-506)": "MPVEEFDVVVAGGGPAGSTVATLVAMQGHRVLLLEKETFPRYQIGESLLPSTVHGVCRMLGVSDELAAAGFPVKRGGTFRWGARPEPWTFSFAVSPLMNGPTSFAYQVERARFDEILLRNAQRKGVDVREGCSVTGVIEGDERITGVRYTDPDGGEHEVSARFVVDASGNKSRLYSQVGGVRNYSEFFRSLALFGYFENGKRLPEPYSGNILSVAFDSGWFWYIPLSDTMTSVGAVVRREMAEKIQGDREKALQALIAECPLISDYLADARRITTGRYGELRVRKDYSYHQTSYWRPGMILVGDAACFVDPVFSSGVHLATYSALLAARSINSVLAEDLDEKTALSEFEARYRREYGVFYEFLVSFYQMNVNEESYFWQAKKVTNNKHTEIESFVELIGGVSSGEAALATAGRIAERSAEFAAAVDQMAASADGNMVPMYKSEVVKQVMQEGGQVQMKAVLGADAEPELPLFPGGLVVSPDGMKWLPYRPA", "experiment": "purified as FAD-bound form", "type": "binding", "conditions": "FAD co-purified with the enzyme"}}, "data": [{"smiles": "Cc1cc2nc3c(=O)[nH]c(=O)nc-3n(C[C@H](O)[C@H](O)[C@H](O)COP(=O)(O)OP(=O)(O)OC[C@H]3O[C@@H](n4cnc5c(N)ncnc54)[C@H](O)[C@@H]3O)c2cc1C", "note": "[FAD]", "values": [{"measurement": "purified as FAD-bound form", "setting": "[1]", "result": "Both enzymes could be overproduced and purified in an FAD-bound form as anticipated"}, {"measurement": "purified as FAD-bound form", "setting": "[2]", "result": "Both enzymes could be overproduced and purified in an FAD-bound form as anticipated"}]}]}
